Legend:
[1] = target: Sodium-dependent noradrenaline transporter (Homo sapiens, UniProt P23975); assay: The compound was tested for inhibition of [3H]norepinephrine uptake in HEK cells by expressing cDNA for human norepinephrine transporter; format: cell-based, HEK293
[2] = target: Sodium-dependent dopamine transporter (Homo sapiens, UniProt Q01959); assay: Inhibition of [3H]dopamine uptake in HEK cells expressing human Dopamine transporter; format: cell-based, HEK293
[3] = target: Sodium-dependent serotonin transporter (Homo sapiens, UniProt P31645); assay: The compound was tested for inhibition of [3H]-5-hydroxy tryptamine uptake in HEK cells by expressing cDNA for human […]; format: cell-based, HEK293
[4] = target: Monoamine transporters; serotonin & dopamine (Homo sapiens) (UniProt P31645+Q01959); assay: Ratio of 5-hydroxy tryptamine and dopamine transporter inhibition; format: protein assay
Sequence of Monoamine transporters; serotonin & dopamine (Homo sapiens) (P31645 whole entry, looked up): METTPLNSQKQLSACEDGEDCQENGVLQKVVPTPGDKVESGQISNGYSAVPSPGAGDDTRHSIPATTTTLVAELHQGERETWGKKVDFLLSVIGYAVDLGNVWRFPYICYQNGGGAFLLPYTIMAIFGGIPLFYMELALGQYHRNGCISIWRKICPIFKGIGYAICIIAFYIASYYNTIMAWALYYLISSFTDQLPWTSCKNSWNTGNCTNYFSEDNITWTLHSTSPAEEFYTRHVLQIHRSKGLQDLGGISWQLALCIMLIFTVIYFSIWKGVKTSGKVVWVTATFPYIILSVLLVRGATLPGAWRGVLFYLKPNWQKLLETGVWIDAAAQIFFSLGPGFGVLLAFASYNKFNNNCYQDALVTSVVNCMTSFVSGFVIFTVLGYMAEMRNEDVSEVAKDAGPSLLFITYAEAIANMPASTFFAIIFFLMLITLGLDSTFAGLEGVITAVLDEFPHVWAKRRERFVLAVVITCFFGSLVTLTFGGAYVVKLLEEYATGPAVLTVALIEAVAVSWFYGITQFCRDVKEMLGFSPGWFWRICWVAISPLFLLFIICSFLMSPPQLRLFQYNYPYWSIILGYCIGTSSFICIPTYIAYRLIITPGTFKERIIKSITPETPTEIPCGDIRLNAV
Sequence of Monoamine transporters; serotonin & dopamine (Homo sapiens) (Q01959 whole entry, looked up): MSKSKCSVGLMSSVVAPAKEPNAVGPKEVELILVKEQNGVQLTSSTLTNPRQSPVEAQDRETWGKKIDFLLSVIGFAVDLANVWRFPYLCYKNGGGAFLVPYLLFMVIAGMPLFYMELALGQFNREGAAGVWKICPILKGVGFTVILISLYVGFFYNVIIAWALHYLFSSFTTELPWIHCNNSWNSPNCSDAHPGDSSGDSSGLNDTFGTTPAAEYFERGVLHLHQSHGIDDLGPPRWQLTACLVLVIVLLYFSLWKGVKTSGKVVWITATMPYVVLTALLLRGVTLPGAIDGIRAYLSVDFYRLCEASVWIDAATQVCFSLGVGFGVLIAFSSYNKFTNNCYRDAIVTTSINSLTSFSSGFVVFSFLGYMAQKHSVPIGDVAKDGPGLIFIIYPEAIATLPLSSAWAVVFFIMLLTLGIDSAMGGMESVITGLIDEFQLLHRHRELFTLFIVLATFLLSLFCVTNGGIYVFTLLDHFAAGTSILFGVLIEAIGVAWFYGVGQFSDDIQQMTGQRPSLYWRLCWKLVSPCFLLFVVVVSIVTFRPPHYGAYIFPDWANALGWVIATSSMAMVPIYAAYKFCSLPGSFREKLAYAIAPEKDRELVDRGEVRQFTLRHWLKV

Sequence of Sodium-dependent dopamine transporter (Q01959 whole entry): as the sequence (Q01959 whole entry, looked up) above
Sequence of Sodium-dependent serotonin transporter (P31645 whole entry): as the sequence (P31645 whole entry, looked up) above
Sequence of Sodium-dependent noradrenaline transporter (P23975 whole entry): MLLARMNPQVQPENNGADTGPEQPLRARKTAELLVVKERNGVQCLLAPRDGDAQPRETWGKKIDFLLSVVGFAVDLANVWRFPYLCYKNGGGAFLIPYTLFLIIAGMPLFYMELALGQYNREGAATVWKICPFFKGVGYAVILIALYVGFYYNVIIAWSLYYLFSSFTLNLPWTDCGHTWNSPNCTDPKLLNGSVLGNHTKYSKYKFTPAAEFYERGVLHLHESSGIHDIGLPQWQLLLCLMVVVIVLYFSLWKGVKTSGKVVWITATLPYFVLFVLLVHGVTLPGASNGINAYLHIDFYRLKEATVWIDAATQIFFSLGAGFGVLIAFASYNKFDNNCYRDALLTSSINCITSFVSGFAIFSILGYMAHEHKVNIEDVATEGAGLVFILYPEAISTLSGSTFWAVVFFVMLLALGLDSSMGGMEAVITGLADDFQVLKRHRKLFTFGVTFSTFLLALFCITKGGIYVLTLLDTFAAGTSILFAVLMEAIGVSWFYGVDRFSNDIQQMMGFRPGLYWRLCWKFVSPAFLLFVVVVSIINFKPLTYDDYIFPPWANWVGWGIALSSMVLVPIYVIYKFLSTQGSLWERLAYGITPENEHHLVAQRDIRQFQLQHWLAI

Structure (SMILES)	IC50 [1] [nM]	IC50 [2] [nM]	IC50 [3] [nM]	Ratio [4]
O=C1CN2C3CC[C@@H]2C[C@H](c2ccc(F)cc2)C13	620	3320	251	0.076
CCC[C@@]1(O)CN2C3CC[C@@H]2C[C@H](c2ccc(C)cc2)C31	18	373	41	0.11
C=C1CN2C3CC[C@@H]2C[C@H](c2ccc(C)cc2)C13	2.2	67	33	0.49
Cc1ccc([C@H]2C[C@H]3CCC4C2[C@](C)(O)CN43)cc1	296	390	147	0.38
Cc1ccc([C@H]2C[C@H]3CCC4C2[C@@](O)(c2ccc(Cl)cc2)CN43)cc1	23	44	13	0.3
Cc1ccc([C@H]2C[C@H]3CCC4C2[C@@](O)(c2ccccc2)CN43)cc1	11		7.9	
Cc1ccc([C@H]2C[C@H]3CCC4C2C(=O)CN43)cc1	110	538	68	0.13
CCCC1C2C3CCN2[C@H](C3)C[C@@H]1c1ccc(C)cc1 (stereo partly drawn)	109	570		
